Test results as given in ChEMBL document CHEMBL1157539, “Thousands of chemical starting points for antimalarial lead identification” (Nature, 2010).

test system: Plasmodium falciparum; assay: GSK_TCMDC: Inhibition of Plasmodium falciparum 3D7 in whole erythrocytes, using parasite LDH activity as an index of growth.; assay type: functional, organism-based; conditions: not given

| Compound | XC50 [nM] |
| --- | --- |
| Cc1ccc(CC(C)NC[C@H](O)c2cccc(Cl)c2)cc1 (stereo partly specified) | 927 |

same assay, conditions: Plasmodium falciparum, 3D7

| Compound | XC50 [nM] |
| --- | --- |
| COc1ccc(NC(=O)c2cc(NC(=O)C3(N)CC3)c(=O)n(Cc3ccc(C(N)=O)cc3)c2)cc1 | 792 |
| CC1(C)NC(N)=NC(=N)N1OCCc1ccccc1 | 3.2 |
| O=C(NC1CCC(CCN2Cc3cccc(C(F)(F)F)c3C2)CC1)c1cccc(-c2cccnc2)c1 (stereo unspecified) | 1020 |
| COc1cccc2cc(C(=O)N[C@@H](CC(C)C)C(=O)N[C@H](/C=N/NC(=O)OC(C)(C)C)CC(=O)OC(C)(C)C)oc12 | 403 |
| Cc1c(CC(=O)NCCC2CCN(CCCCCNC(=O)/C=C/c3ccc(Cl)c(Cl)c3)CC2)sc2ccc(Cl)cc12 | 880 |
| Nc1ccc(-c2ccc(NC(=O)Nc3ccccc3)cc2)cn1 | 920 |
| Fc1ccc2[nH]c(-c3ccc(-c4ccc(CN5CCCCC5)cc4)cc3)nc2c1 | 349 |
| CC1CCCCC1N(C)C1CCN(CCCNC(=O)C=Cc2ccccc2Cl)CC1 (stereo unspecified) | 666 |
| Clc1ccc(CNC2CCN(CC3CCCCC3)CC2)cc1 | 1110 |
| Brc1cccc(Nc2nccc(Nc3ccc(Oc4ccccc4)cc3)n2)c1 | 1010 |
| CCOC(=O)NC1=NC(=N)N(OCCCOc2cc(Cl)c(Cl)cc2Cl)C(C)(C)N1 | 3.2 |
| COc1ccc2nccc([C@@H](O)CN3CCC(NCc4nc5c(cc4F)SCC(=O)N5)C(F)C3)c2c1 (stereo partly specified) | 725 |
| COc1cc2nc(NCC3CCN(c4nc(N)c5cc(OC)c(OC)cc5n4)CC3)nc(N)c2cc1OC | 776 |
| Clc1cc(Nc2ncnc3sc(C#Cc4ncc[nH]4)cc23)ccc1OCc1ccccn1 | 1110 |
| COc1ccc(NC(=O)/C=C/c2ccccc2Cl)cc1OCCN1CCC(NCc2ccccc2)CC1 | 352 |
| CCCCCN1CCN(Cc2cccc(NC(=O)c3ccc(Cl)c(Cl)c3)c2)CC1 | 857 |
| CN(C)Cc1cccc(-c2ccc(NC(=O)c3ccc4c(=O)n(CCN5CCCCC5)cnc4c3)cc2)c1 | 650 |
| CCS(=O)(=O)N1CCN(c2nc(-c3ccccc3)nc(COC)c2Cc2ccccc2F)CC1 | 1450 |
| CC(C)(C)c1ccccc1OCCCON1C(=N)N=C(N)NC1(C)C | 3.2 |
| CS(=O)(=O)c1ccccc1CNC(=O)c1ccc(-c2cccc(-c3nc4cc(C(F)(F)F)ccc4[nH]3)c2)cc1 | 866 |
| C(=NN=c1cc[nH]c2ccccc12)c1ccncc1 | 743 |
| O=S(=O)(c1c(Cl)cc(Cl)cc1Cl)N1CCCCC(c2ccc(C(F)(F)F)cc2)=N1 | 95 |
| COc1cc2ccccc2cc1CNCCCCCCNCc1cc2ccccc2cc1OC | 720 |
| CCc1cn2c3c(cc(C(=O)N[C@@H](Cc4ccccc4)[C@H](O)CNCC(C)C)cc13)N(C)S(=O)(=O)CC2 | 37.6 |

| Compound | XC50 [nM] |
| --- | --- |
| O=C(N[C@@H](Cc1ccccc1)C(=O)NCc1cccc2ccccc12)c1ccc(O)c(-c2ccc(Cl)c(Cl)c2)c1 | 236 |
| CCCc1ccc(-c2csc(NC(=O)c3ccc([N+](=O)[O-])o3)n2)cc1 | 1210 |
| CCc1nc(N)nc(N)c1-c1ccc(C(C)(C)C)cc1 | 235 |
| CCNc1cc(C)nc(Nc2ccc(NC(=O)c3cccs3)cc2)n1 | 1020 |
| COc1ccc(C2(CNCC(O)c3cccc([N+](=O)[O-])c3)CCCCC2)cc1OC (stereo unspecified) | 957 |
| COc1cc(NC(=O)Nc2ccc([N+](=O)[O-])cc2OC)c(OC)cc1Cl | 1470 |
| CCN(CC)CCN(Cc1ccc(-c2ccc(C(F)(F)F)cc2)cc1)C(=O)Cn1c(CCc2ccc(F)cc2)nc(=O)c2ccccc21 | 1070 |
| Cc1cnc(NCC2CCCCC2)nc1N[C@@H](CO)C(=O)Nc1ccccc1 | 1100 |
| CNC(=O)Cc1ccc(C(=O)Nc2cccc(-c3cccc(-c4nc5cc(C(F)(F)F)ccc5[nH]4)c3)c2)cc1 | 440 |
| CC1CC(NCCCNc2cc(=O)c3ccccc3[nH]2)c2c(Cl)c(Cl)cc(Cl)c21 (stereo unspecified) | 981 |
| CO/C(=C\C=C\c1cc2cc(Cl)c(Cl)cc2[nH]1)C(=O)NCCCN1CCN(c2cccc(O)c2)CC1 | 579 |
| O=C(/C=C/c1ccc(Cl)c(Cl)c1)NCCCCCN1CCCN(C(=O)Nc2ccc(OC(F)F)cc2)CC1 | 833 |
| O=c1cc(NCCCNCc2cc3ccc(Br)cc3s2)[nH]c2ccccc12 | 990 |
| Cc1ccc(NC(=O)Cc2noc(CC3CCCN3C(=O)N[C@@H](C)c3ccccc3)n2)cc1 (stereo partly specified) | 369 |
| CC(C)(C)c1ccc(CN2CCC(NC(=O)c3ccc(-c4ccccc4F)s3)CC2)cc1 | 1200 |
| COc1ccc2nc(NC(N)=NC(=O)Nc3ccccc3)nc(C)c2c1 | 1280 |
| COc1cc(Nc2nccn3c(-c4ccsc4)cnc23)cc(OC)c1OC | 890 |
| COc1cccc(CN2CCCC(CCC(=O)Nc3ccc(C(F)(F)F)cc3)C2)c1O (stereo unspecified) | 747 |
| Cc1cccc2nc(-c3cccc(-c4ccc(NC(=O)NC(C)C)cc4)c3)[nH]c12 | 754 |
| CC1(C)NC(=N)NC(=N)N1OCC=Cc1ccccc1 | 4.24 |
| CCCCCN1C(=O)N(c2ccc(Cl)c(Cl)c2)C(N(O)C(=O)Nc2ccc(Cl)c(Cl)c2)C1(C)C (stereo unspecified) | 545 |
| CN(C(=O)Cc1ccc(Cl)cc1)C1CCN(CCCCCNC(=O)/C=C/c2ccc(Cl)c(Cl)c2)CC1 | 719 |
| CCN(CCNC(=O)Cn1c(C)cc2cc([N+](=O)[O-])ccc21)c1cccc(C)c1 | 1010 |
| CCCC1N=C(N)N=C(N)N1c1ccc(OC)cc1 (stereo unspecified) | 234 |

| Compound | XC50 [nM] |
| --- | --- |
| CC(C)(C)OC(=O)C1CCCN(Cc2ccc(-c3cccc(-c4nc5ccccc5[nH]4)c3)cc2)C1 (stereo unspecified) | 358 |
| COc1ccc(CCn2c(=N)c(C(=O)NCc3cccnc3)cc3c(=O)n4cccc(C)c4nc32)cc1 | 1400 |
| CC(C)(C)SC1SC(SC(C)(C)C)C(OC(=O)c2ccccc2)C(OC(=O)c2ccccc2)C1OC(=O)c1ccccc1 (stereo unspecified) | 937 |
| CNC(=O)c1ccccc1Nc1nc(Nc2cccc(CS(C)(=O)=O)c2)ncc1C | 533 |
| CCOc1cc(C)ccc1C1CCN(CCCCNC(=O)c2cnc(-c3ccc(C(F)(F)F)cc3)[nH]2)CC1 | 771 |
| Cc1ccccc1C1CCN(c2ncc(C(=O)NC3CC3)cc2Cl)CC1 | 697 |
| COc1ccc(C(=O)N2CCc3cc4nccc(N5CCN6CCC[C@H]6C5)c4cc32)cc1 | 948 |
| O=c1cc(NCCCNCc2cc(C(F)(F)F)ccc2F)[nH]c2ccccc12 | 829 |
| Cc1cc(C)n2nc(C(=O)Nc3cc(C(F)(F)F)ccc3N3CCOCC3)nc2n1 | 119 |
| COC(=O)c1ccc2c(-c3nc4ccc(OC)cc4[nH]3)c[nH]c2c1 | 876 |
| O=C(CCc1c[nH]cn1)Nc1cccc(-c2ccc(-c3nc4ccccc4[nH]3)s2)c1 | 759 |
| Cc1ccc(-c2csc(C)n2)c(C)c1 | 991 |
| Cc1cc(-c2cccc3c(C(=O)N4CCc5cc6nccc(N7CCN8CCC[C@H]8C7)c6cc54)cccc23)cc(C)n1 | 709 |
| C[C@@H](COc1ccc(-c2ccccc2)cc1)CON1C(N)=NC(N)=NC1(C)C | 3.2 |
| COc1cc(OC)cc(-c2nnc(Sc3ccc(C#N)c([N+](=O)[O-])c3)n2C)c1 | 937 |
| COc1cccc(CN2CCC3(CC2)CN(C(=O)Nc2ccc(Cl)c(Cl)c2)C3)c1 | 752 |
| COc1ccc2nc(-c3cc(-c4ccc(NC(C)=O)cc4)cnc3N)[nH]c2c1 | 1240 |
| CN(C)c1ccc(-c2cscc2C(=O)NC2CCCN(Cc3cccnc3)C2)cc1 (stereo unspecified) | 859 |
| CCCCCOc1ccc(N2C(N)=NC(N)=NC2(C)C)cc1 | 205 |
| N=C(N)NN=Cc1c2ccccc2c(Cl)c2cc(Cl)ccc12 | 791 |
| O=C(N[C@@H](CC1CCCCC1)C(=O)NCCc1ccc(Cl)c(Cl)c1)c1ccc(O)c(-c2ccc(Cl)c(Cl)c2)c1 | 156 |
| O=S(=O)(NCCN1CCCC1)c1ccc(-c2cccc(CNCc3ccc(F)cc3)c2)cc1 | 729 |
| CC(C)c1sc(N2CCCCC2)nc1C(=O)Nc1ccc(F)cc1C(F)(F)F | 239 |
| CN(C)C(=O)CN1CCN(c2ncnc(N3CCc4c([nH]c5ccccc45)[C@@H]3c3ccc4c(c3)CCO4)n2)CC1 | 871 |

| Compound | XC50 [nM] |
| --- | --- |
| COc1ccc(-c2cccc(NC(=O)c3cccc(C#N)c3)c2)cc1CN1CCC(O)CC1 | 990 |
| O=S(=O)(NCCN1CCCC1)c1cccc(-c2ccc(CNCc3ccccc3)cc2)c1 | 1000 |
| CC(C)c1ccc(S(=O)(=O)N(c2ccc3c(c2)OCO3)C2CCN(Cc3ccccc3)C2)cc1 (stereo unspecified) | 350 |
| CN(C)S(=O)(=O)c1cc(-c2ccc3nccc(-c4cccc(S(N)(=O)=O)c4)c3c2)cnc1N | 251 |
| CC(C)(C)c1cc(C(=O)N2CCN(c3nccnc3C#N)CC2)n(Cc2ccccc2)n1 | 758 |
| CC(C)(CN1CCCC1)CN(Cc1ccc(-c2ccc(C(F)(F)F)cc2)cc1)C(=O)Cn1c(CCc2cccc(F)c2F)nc(=O)c2ccccc21 | 790 |
| O=C(Nc1ccc(-c2nc3ccccc3[nH]2)cc1)C1CCN(Cc2cccc(F)c2F)CC1 | 1100 |
| CS(=O)(=O)c1ccc(-c2cncc(Cl)n2)cc1 | 770 |
| Nc1ccc2c(N)c3ccccc3nc2c1 | 812 |
| CC(CN1CCN(C)CC1)C(=O)Nc1ccc(-c2ccc(-c3nc4ccccc4[nH]3)cc2)cc1 (stereo unspecified) | 954 |
| COc1c(C2CCN(CCCCNC(=O)c3cc(-c4ccc(C#N)cc4)n[nH]3)CC2)ccc2c1CCCC2 | 1160 |
| CNC(=O)c1ccc2nc(C3CC3)n(CC3CCN(S(=O)(=O)c4cccc(Cl)c4)CC3)c2c1 | 651 |
| CCN(CCCN1CCCCC1)c1cc(C)nc(Nc2ccc(C)cc2Br)n1 | 172 |
| CCc1c(C)nc(-n2nc(C)cc2NC(=O)c2cccc3ccccc23)[nH]c1=O | 682 |
| CS(=O)(=O)Nc1cccc(-c2cnc3[nH]cc(-c4ccc(C(=O)O)cc4)c3c2)c1 | 857 |
| CC(=O)N(C)c1ccc(C(=O)Nc2cccc(-c3cccc(-c4nc5cc(C(F)(F)F)ccc5[nH]4)c3)c2)cc1 | 314 |
| COc1ccc(C[C@H](N)C(=O)N[C@H]2[C@@H](O)[C@H](n3cnc4c(N(C)C)ncnc43)O[C@@H]2CO)cc1 | 299 |
| CN1CCN(Cc2ccc(-c3ccc4c(Nc5ccc(Oc6ccccc6)cc5)ccnc4c3)o2)CC1 | 177 |
| CN1CCN(CCCN(Cc2ccc(-c3ccc(CNC4CCCC4)cc3)cc2)C(=O)CCC2CCCC2)CC1 | 886 |
| FC(F)(F)c1ccccc1OCc1cc(-c2ccncc2)c(COc2ccccc2C(F)(F)F)cc1C1=CCNCC1 | 890 |
| Oc1cccc(Nc2ccnc3cc(-c4ccncc4)ccc23)c1 | 1050 |
| CCCC(C)n1ccc2c3c(N)nc(N)nc3ccc21 (stereo unspecified) | 47.6 |
| CN1CCC(Oc2ccc(CN3CC[C@H](NC(=O)c4ccc(Cl)c(Cl)c4)C3)cc2Cl)C1 (stereo partly specified) | 882 |
